The target in one experiment is human Smo (Homo sapiens (Human), UniProt Q99835). As to the kind of experiment: Smo radioligand competition binding assay. The conditions noted are these: for inhibition at 0.05 µM: 0.05 μM test compound, read-out: Smo % inh. @ 0.05 μM. As to the method:
Smo Radioligand Competition Binding Assay
Membranes were prepared from a stable cell line created in HEK293FlpIn-TetR cells (Invitrogen) using Flp recombinase-mediated insertion of the pSecTag-FRT/V5-His vector containing a cDNA encoding amino acids […] of human Smo fused to the murine Igk leader sequence to produce a cell surface expressed Smo 181-781 protein. Hygromycin-resistant clones were obtained and stained for LacZ expression (no expression indicates a correct knock-in of fusion cDNA). LacZ-negative cells were analyzed for binding tritiated Smo antagonists. For membrane preparation, the HEK293 cells expressing Smo 181-781 were grown to 90% confluence in nine to fifteen 245 mm×245 mm×22 mm dishes, washed with Dulbecco's PBS (15 mL per dish) and harvested via scraping in 10 mL of DPBS. The cells were collected and centrifuged at 1500 rpm (400×g) for 10 min at 4° C. The cell pellets were re-suspended in 40 mL of cold DPBS and washed by centrifugation at 2300 rpm (950×g max) for 10 minutes at 4° C. The supernatant was aspirated and the cell pellet was snap frozen in a methanol/dry ice bath and stored at −70° C. For membrane preparation, 15 mL of Membrane Preparation Buffer (50 mM Tris-HCl pH 7.5, 250 mM sucrose with Roche complete protease cocktail tablets) was added to the tube containing the cell pellet, then cells are rapidly thawed, and homogenized using an Ultra-Turrax T8 (IKA Labortechnik) set on “6” for 15 seconds for 5-6 times in icy water bath. This homogenate was diluted up to 50 mL using Membrane Preparation Buffer and centrifuged at 35,000 rpm in a Beckman Ti45 rotor (140,000×g) for 35 minutes at 4° C. followed by aspiration of the supernatant and re-suspension of the pellet in 5 mL of Assay Buffer (50 mM Tris-HCl pH 7.5, 100 mM NaCl, 25 mM MgCl2, 1 mM EDTA, and 0.1% protease free bovine serum albumin). The re-suspended pellet was then homogenized in a glass tissue grinder. The re-suspended membranes were aliquoted (0.5 mL aliquots), snap frozen and stored at −70° C. Total protein in the membrane preparation was determined using the Pierce BCA protein assay (Pierce Chemical).
For the binding competition assay, 100 μL of Assay Buffer was added to all the wells of a 96 well GF/B filter plate (Millipore MultiScreen-HTS-FB cat# MSFBN6B50) for 10 minutes to pre-wet the filter prior to evacuation of the buffer (8 inches Hg for 8 seconds). To the pre-wet wells is added: 20 μL of Assay Buffer, 10 μL diluted test agent, 20 μL of a tritiated Smo antagonist (15 nM stock solution), and 50 μL of membrane preparation (40 μg total protein per well). The plates are sealed and mixed at room temperature for 5 min, incubated at room temperature for 2 hours, then washed 5 times with 100 μL/each of wash buffer and vacuum dried for 8 seconds at 8 inches Hg. The plate is then dried for one hour in a 60° C. oven prior to the addition of 45 μL of Microscint 20 (Packard, #6013621) to each well and incubation at RT for 30 minutes to 1 hour. The plate is counted in a TopCount scintillation counter (Perkin Elmer).
Data analysis uses Excel for % Inhibition and Graphpad Prism for IC50 calculation. Total binding (TB, in the absence of inhibitors)=average of tritiated Smo antagonist 3 nM+Smo membrane (40 μg/wells (approx 5000-7000 CPM)). Non-specific binding (NSB)=average of tritiated Smo antagonist (3 nM)+cold Smo antagonist (30 μM)+Smo membrane (approx 600-1200 CPM). Specific binding (SB)=(total binding−non-specific binding). % Inhibition=[1−(compound Specific binding/control Specific binding)]×100%. IC50 is calculated by fitting the data to the four parameter sigmoidal dose-response curve (variable slope) Y=Bottom+(Top-Bottom)/(1+10^((LogEC50−X)*HillSlope)). X is the logarithm of the inhibitor concentration. Y is the response; Y starts at Bottom and goes to Top with a sigmoid shape.
For orientation: In a radioligand displacement assay an active substance lowers the binding of a labelled ligand.

The next experiment has as its system Gli-Luc/MEF cells. The experiment in a line: Gli-Luc/MEF assay. As to conditions: Mus musculus, MEF; Shh-stimulated luciferase, 48 hours. Format: cell-based, mouse. As to the method: The Gli-Luc/MEF cells obtained from Gli-Luc transgenic mice contain a luciferase reporter gene under the control of the Gli response element. Luciferase activity stimulated with Sonic hedgehog ligand was inhibited by Smo inhibitors, and IC50 was subsequently calculated.
Plates were incubated at 37° C. and 5% CO2 overnight. On day two, cells were dosed with test compounds at a final concentration ranging from 3 μM to 50 μM at a 3-time series dilution. Immediately after dosing cells with compounds, recombinant mouse sonic hedgehog (Shh, R&D Systems 464-SH) was added to a final concentration of 2 μg/mL. The cells were incubated with compounds and Shh for 48 hours at 37° C. and 5% CO2. Luciferase assays were conducted on Day 4 using the Bright-Glo Luciferase assay system (Promega E2620) according to Promega's protocol. Briefly, Bright-Glo luciferase reagent was made up and 25 μL were added to each well of the 384-well plate containing media. Plates were kept at room temperature for 5 minutes, and then read on an Envision Luminescence plate reader (Perkin-Elmer). IC50 of the inhibition was calculated by using GraphPad Prism.

Here are results for 12 compounds from patent US9056865B2, “Pyridine-2-derivatives as smoothened receptor modulators” (Pfizer Inc., priority 2010, dated 2015).

What is called pIC50 is the IC50 on a negative log10 scale, so that one unit is a factor of ten.

Structures are written as SMILES. pIC50: −log10 of the molar value.

Sequence of human Smo (Q99835 181-787): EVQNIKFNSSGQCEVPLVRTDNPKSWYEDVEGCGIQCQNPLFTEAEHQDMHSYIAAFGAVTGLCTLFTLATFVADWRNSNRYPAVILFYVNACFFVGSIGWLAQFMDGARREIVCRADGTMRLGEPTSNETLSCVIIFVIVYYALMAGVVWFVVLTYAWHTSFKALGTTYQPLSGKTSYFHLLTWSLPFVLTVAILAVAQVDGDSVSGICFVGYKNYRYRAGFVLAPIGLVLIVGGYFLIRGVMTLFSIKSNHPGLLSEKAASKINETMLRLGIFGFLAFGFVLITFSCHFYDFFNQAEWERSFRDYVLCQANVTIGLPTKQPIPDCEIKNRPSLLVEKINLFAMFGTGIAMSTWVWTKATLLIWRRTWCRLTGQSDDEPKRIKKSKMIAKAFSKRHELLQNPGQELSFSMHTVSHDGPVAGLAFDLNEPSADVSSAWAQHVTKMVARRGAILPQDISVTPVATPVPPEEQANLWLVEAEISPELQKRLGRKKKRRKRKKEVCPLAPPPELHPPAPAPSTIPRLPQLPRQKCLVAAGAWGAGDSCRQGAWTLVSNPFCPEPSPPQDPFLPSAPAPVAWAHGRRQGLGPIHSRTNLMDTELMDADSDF

With `CS(=O)(=O)CC1CCN(c2ncc(Cl)c(-c3ccccn3)n2)CC1` [Example A-92, 5-chloro-2-{4-[(methylsulfonyl)methyl]piperidin-1-yl}-4-pyridin-2-ylpyrimidine], the values for the pIC50 on human Smo and with Gli-Luc/MEF cells were 6.88 and 7.23, respectively. Further, the inhibition at 0.05 µM at human Smo is 79.8%.

Take `Cc1cccnc1-c1cc(N2CCN(C(=O)CC(C)(C)O)CC2)ncc1Cl` [Example A-47, 4-[4-(5′-chloro-3-methyl-2,4′-bipyridin-2′-yl)piperazin-1-yl]-2-methyl-4-oxobutan-2-ol]: the pIC50 on human Smo was 7.66; in the experiment with Gli-Luc/MEF cells, 7.44. The inhibition at 0.05 µM at human Smo stood at 95.2%.

Regarding `Cc1cccnc1-c1cc(N2CCC(C(=O)N[C@H]3CCN(S(C)(=O)=O)C3)CC2)ncc1Cl` [Example A-60, 1-(5′-chloro-3-methyl-2,4′-bipyridin-2′-yl)-N-[(3S)-1-(methylsulfonyl)pyrrolidin-3-yl]piperidine-4-carboxamide], at human Smo, the pIC50 is 7.17 and the inhibition at 0.05 µM was determined as 83.8%. Further, in the experiment on Gli-Luc/MEF cells, the negative logarithm of the IC50 (pIC50) was 7.24.

Regarding `COc1ccccc1CNC(=O)C1CCN(c2cc(-c3ncccc3C)c(Cl)cn2)CC1` [Example A-79, 1-(5′-chloro-3-methyl-2,4′-bipyridin-2′-yl)-N-(2-methoxybenzyl)piperidine-4-carboxamide], at human Smo, the pIC50 is 6.79 and the inhibition at 0.05 µM stood at 78.4%. This compound showed a pIC50 in the experiment on Gli-Luc/MEF cells of 7.52.

Consider `Cc1cccnc1-c1cc(N2CCN(c3ccc(C#N)cn3)CC2)ncc1Cl` [Example A-19, 6-[4-(5′-chloro-3-methyl-2,4′-bipyridin-2′-yl)piperazin-1-yl]nicatinonitrile], for which, at human Smo, the negative-log IC50 (pIC50) was 7.43 and the inhibition at 0.05 µM was determined as 91.5%. Also, in the experiment on Gli-Luc/MEF cells, the pIC50 was 8.00.

Consider `Cc1cccnc1-c1cc(N2CCC(C(=O)N[C@@H]3CCN(S(C)(=O)=O)C3)CC2)ncc1Cl` [Example A-57, 1-(5′-chloro-3-methyl-2,4′-bipyridin-2′-yl)-N-[(3R)-1-(methylsulfonyl)pyrrolidin-3-yl]piperidine-4-carboxamide], for which, on human Smo, the pIC50 was 7.04 and the inhibition at 0.05 µM came out at 87.9%. Besides, the pIC50 in the experiment with Gli-Luc/MEF cells was 7.11.

On to `Cc1cc(F)cnc1-c1cc(N2CCN(S(=O)(=O)CCO)CC2)ncc1Cl` [Example A-150, 2-{[4-(5′-chloro-5-fluoro-3-methyl-2,4′-bipyridin-2′-yl)piperazin-1-yl]sulfonyl}ethanol], for which, on human Smo, the pIC50 is 7.09 and the inhibition at 0.05 µM was determined as 76.9%. The same compound gave a pIC50 with Gli-Luc/MEF cells of 7.53.

As for `Cc1cccnc1-c1cc(N2CCC(C(=O)NC[C@H]3CCCO3)CC2)ncc1Cl` [Example A-63, 1-(5′-chloro-3-methyl-2,4′-bipyridin-2′-yl)-N-[(2R)-tetrahydrofuran-2-ylmethyl]piperidine-4-carboxamide], the pIC50 at human Smo is 6.86; with Gli-Luc/MEF cells, 7.08. Besides, the inhibition at 0.05 µM on human Smo turned out to be 82.5%.

On to `COCCS(=O)(=O)N1CCN(c2ccc(Cl)c(-c3ccccn3)n2)CC1` [Example A-136, 3-chloro-6-{4-[(2-methoxyethyl)sulfonyl]piperazin-1-yl}-2,2′-bipyridine], for which, on human Smo, the pIC50 was 6.48 and the inhibition at 0.05 µM came out at 58.8%. Besides, in the experiment on Gli-Luc/MEF cells, the pIC50 is 6.93.

As to `Cc1cccnc1-c1nc(N2CCC(CS(C)(=O)=O)CC2)ncc1Cl` [Example A-97, 5-chloro-4-(3-methylpyridin-2-yl)-2-{4-[(methylsulfonyl)methyl]piperidin-1-yl}pyrimidine], at human Smo, the pIC50 is 7.52 and the inhibition at 0.05 µM came out at 95.4%. In the experiment on Gli-Luc/MEF cells, this compound gave a pIC50 of 7.88.

For the compound `CS(=O)(=O)NC1CCN(c2cc(-c3ccccn3)c(Cl)cn2)CC1` [Example A-7, N-[1-(5′-chloro-2,4′-bipyridin-2′-yl)piperidin-4-yl]methanesulfonamide], on human Smo, the inhibition at 0.05 µM amounted to 45%.

Regarding `O=S(=O)(CCO)N1CCN(c2ccc(Cl)c(-c3ccccn3)n2)CC1` [Example A-137, 2-{[4-(3-chloro-2,2′-bipyridin-6-yl)piperazin-1-yl]sulfonyl}ethanol], at human Smo, the inhibition at 0.05 µM came to 45.8%.
